{"source": "paper PMC12156367", "about": "“Synthesis and Biological Evaluation of Seco-Coumarin/Furoxan Hybrids as Potent Anti-Tumor Agents to Overcome Multidrug Resistance via Multiple Mechanisms” (Molecules, 2025)", "key": {"[1]": {"system": "HUVEC (human umbilical vein endothelial cell lines)", "assay": "Cytotoxicity screen in HUVEC", "type": "cell-based", "conditions": "500 nM concentration", "excerpt": "The MDA-MB-468 cell line was procured from the Cell Bank of the Chinese Academy of Sciences. The MCF-7, MCF-7/ADR, MCF-10A, and MDA-MB-231 cell lines were kindly provided by Professor Xianyi Sha (Fudan University, Shanghai, China). The HUVEC cells were kindly provided by Associate Professor Hulie Zeng (Fudan University, Shanghai, China). The MDA-MB-468, MDA-MB-231, MCF-7, MCF-10A, and HUVEC cells were cultivated in DMEM (Service Biotechnology, China) supplemented with 10% FBS (Capricorn Scientific, Germany) and 1% penicillin-streptomycin (Meilunbio, Dalian, China). For the MCF-7/ADR cells, they were cultured in RPMI-1640 (Service Biotechnology, Wuhan, China), containing 10% FBS and 1% penicillin-streptomycin. Additionally, 500 ng/mL of doxorubicin (Sigma-Aldrich, Saint Louis, MO, USA) was incorporated into the RPMI-1640 culture medium to keep drug resistance. All cell lines were cultured in a humidified incubator at 37 °C with a 5% CO2 atmosphere.\nFollowing harvest during logarithmic growth, cells were plated in 96-well culture plates at an initial density of 5000 cells per well. Incubate the plate overnight at 37 °C to allow the cells to adhere. […] The OD value at 570nm was measured using a microplate reader (Thermo Fisher, Waltham, MA, USA). Cell proliferation inhibition was determined using the following formula:Inhibition (%) = [(ODDMSO − ODcompd.)/(ODDMSO − ODblank)] × 100 […]"}, "MCF-7/ADR": {"system": "MCF-7/ADR", "assay": "Cell apoptosis analysis (Annexin V-FITC/PI flow cytometry)", "type": "cell-based, human", "conditions": "9e 10 nM, control 5.53%", "protocol": "MCF-7/ADR (2 × 10^5 cells/well) were plated in 6-well plates and cultured overnight. Following 24 h treatment with specified concentrations of 9e, cells were harvested and analyzed by Annexin V-FITC apoptosis detection kit (Beyotime, Shanghai, China). Cell populations were subsequently analyzed by flow cytometry (Beckman, Brea, CA, USA)."}, "GPX4 in MCF-7/ADR": {"system": "GPX4 in MCF-7/ADR", "assay": "Western blot of GPX4", "type": "cell-based, human", "conditions": "after treatment of 9e", "protocol": "MCF-7/ADR (2 × 10^5 cells/well) were plated in 6-well plates. After 24 h treatment with 9e (20 nM), cell lysates were prepared using RIPA buffer (Beyotime, Shanghai, China; 30 min, ice), then centrifuged (12,000 rpm, 10 min, 4 °C) to harvest protein supernatants. Protein concentrations were measured by BCA assay (Beyotime, Shanghai, China). The supernatants were then loaded and transferred onto PVDF membranes (Millipore, Billerica, MA, USA) for western blot. The blots were developed with ECL chemiluminescent solution (Meilunbio, Dalian, China). Commercially purchased antibodies include P-gp (Abcam, Cambridge, UK; ab170904), Caspase 3 (Proteintech, Wuhan, China; 19677-1-AP), Bcl-2 (Servicebio, Wuhan, China; GB113375-100), LC3 (Abcam, Abcam, Cambridge, UK; ab192890), P62 (Cell Signaling Technology, Danvers, MA, USA; 5114 T), Beclin (ABclonal, Wuhan, China; A7353), GPX4 (ABclonal, Wuhan, China; A11243), LAMP1 (Cell Signaling Technology, Danvers, MA, USA;15,665 T), GAPDH (Servicebio, Wuhan, China; GB11002-100), and β-Actin (Servicebio, Wuhan, China;GB11001-100). The secondary antibodies conjugated with horseradish peroxidase (HRP) were from Abmart."}}, "data": [{"compound": "COc1ccc(CCC(=O)c2ccc(OCCOc3no[n+]([O-])c3S(=O)(=O)c3ccccc3)cc2OC)cc1", "note": "[Compound 9e, 4-(2-(3-methoxy-4-(3-(4-methoxyphenyl)propanoyl)phenoxy)ethoxy)-3-(phenylsulfonyl)-1,2,5-oxadiazole 2-oxide]", "values": [{"measurement": "cell survival probability in HUVEC", "setting": "[1]", "value": "over 90%"}, {"measurement": "apoptosis (Q2+Q3)", "setting": "MCF-7/ADR", "value": 37.1, "unit": "%"}, {"measurement": "expression of GPX4", "setting": "GPX4 in MCF-7/ADR", "value": "clearly decreased"}]}]}
